According to patent US6677376B1, “Non-peptidic cyclophilin binding compounds and their use” (Guilford Pharmaceuticals, Inc., priority 1999, dated 2004):

Columns and labels:
[1] = tested on: spinal motor neurons; experiment: Neuroprotection assay: THA neurotoxicity in spinal cord slice cultures; type: cell-based, Sprague-Dawley rat; conditions: THA 200 μM + compound 10 μM, primary cultures of spinal motor neurons
Experimental: For each of FIGS. 1-7, the bar graphs represent the number of viable neurons after a specified treatment regimen employed in a neuroprotective activity assay. The cells of the experiments were treated with a control solution, a neurotoxic solution, and neurotoxic+experimental compound solution. The statistical significance, p, is calculated using the standard 2 tailed Student's t test.
Each experiment consisted of two 6-well plates with 5 slices from 4 different animals per well. Media changes were performed every 3 to 4 days. […] The control was an untreated sample with 0.1% DMSO as vehicle. The THA control was a THA treated sample with 0.1% DSMO as vehicle. Two wells were used per condition. One media change with new THA and compounds was performed. […]
Quantification of surviving neurons was performed on a Ziess Axiovert microscope. Neuronal survival was determined by observing an intact neuronal cell body with processes located ventrally of the central canal in each hemisphere. […] Each hemisphere was counted individually. The statistics were performed with StatView software on a minimum of three different experiments per condition and significance was determined as compared to THA control. The percent of protection was determined from the average number of living neurons by the following equation: (drug treatment condition−THA control)/(Untreated control−THA control).

[2] = tested on: dorsal root ganglion (DRG) cells; experiment: Neurite outgrowth in dorsal root ganglion (DRG) explant cultures; type: cell-based, mouse; conditions: for neuronal cell growth/neurite extension (images): compared to control, 48 hrs; for neurotrophic or neuroprotectant activity: assay not specified
Experimental: FIG. 7: Primary DRG cultures were used to test for neurotrophic, neurite outgrowth promoting, and neuroregenerative activity. Each of the compounds was incubated with cells at a concentration of 1 μM for 48 hours, as detailed in the examples.
Spinal cord and dorsal root ganglion (DRG) cells from adult mice can be isolated by micro-dissection. The spinal cord with attached DRGs from an adult mouse ([…]) is removed. Spinal nerves are cut away using micro-dissection scissors and any excess material is trimmed until the DRG is free. Using sharp micro-dissecting scissors, a transverse cut is made in the peripheral nerve, leaving 1-2 mm attached, and the explant placed into Petri dish and covered with plating media. When finished collecting all DRGs, the spinal nerve is trimmed to about […] in length. Then embed the explant in 30 μL of reduced growth factor Matrigel on a circular coverslip, and place in a […] culture dish. Cover the sensory ganglion explant with 2 mls of media. Compounds, drugs or control solutions are added from 10× stocks, and incubated at 37° C., 5% CO2, 95% humidity for 48 hrs. Wash cultures twice with PBS, and fix with 10% formalin for 30 minutes. Wash the fixed cultures twice with PBS and store refrigerated in PBS.
Place cultures in Block Buffer (5% Horse Serum, 5% Goat Serum, 1% Triton X, PBS pH=7.4) overnight, while rotating, at a temperature of 4° C. Add primary antibody (Beta tubulin, Sigma Chemical Co.) diluted in Block Buffer and incubate overnight at 4° C. Wash 5 times with PBS and apply secondary antibody (Alexa 488 Goat Anti-Mouse) diluted in block buffer. Incubate overnight at 4° C. Wash 5 times with PBS and leave overnight at 4 degrees. Coverslip the cultures and measure total neurite length from the end of the attached spinal nerve. Lengths of all neurites are quantitated and compared to those present in vehicle-treated control DRGs.

[3] = target: CyP A (Homo sapiens, UniProt P62937)
Experimental: A number of substrates for rotamase are known in the art or can be derived from those known. Typically, the substrate contacts a sample containing a protein with rotamase activity and the conversion of the substrate is detected after a period of time. The method for detecting conversion of the substrate will vary with the particular substrate chosen.
The absorbance at 390 nm versus time is monitored for 90 seconds using a spectrophotometer and the rate constants are determined from the absorbance versus time data files.
While CyP A is used in these examples, other CyP proteins can be substituted.

CyP A, sequence (P62937 whole entry): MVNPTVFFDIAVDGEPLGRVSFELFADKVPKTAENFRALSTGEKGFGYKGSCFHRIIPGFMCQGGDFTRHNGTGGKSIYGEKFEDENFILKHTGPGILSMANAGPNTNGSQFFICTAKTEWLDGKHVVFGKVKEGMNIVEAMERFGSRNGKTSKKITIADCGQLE

| Molecule | neuroprotective activity (number of viable neurons) [1] | neuronal cell growth/neurite extension (images) [2] | neurotrophic or neuroprotectant activity [2] | other results |
| --- | --- | --- | --- | --- |
| O=C(Nc1ccc(I)cc1)Nc1cc(NC(=O)Nc2ccc(I)cc2)c(Br)cc1Br [Compound 3] | displays neuroprotective activity | increase in neuronal cell growth/neurite extension |  |  |
| CSc1ccc(Cl)cc1C(=O)Nc1cccc(NC(=O)c2cc(Cl)ccc2SC)c1 [Compound 6] |  | increase in neuronal cell growth/neurite extension | possess neurotrophic or neuroprotectant activity |  |
| O=C(Nc1ccccc1)Nc1cc(NC(=O)Nc2ccccc2)cc(C(F)(F)F)c1 [Compound 7] |  | increase in neuronal cell growth/neurite extension | possess neurotrophic or neuroprotectant activity |  |
| O=C(NCc1cccc2ccccc12)c1cccc(NC(=O)c2cc(Cl)cc(Cl)c2)c1 [Compound 16, {3-[(3,5-dichlorophenyl)carbonylamino]phenyl}-N-(naphthylmethyl) formamide] |  |  |  | melting point: 205 to 208 °C |
| N#Cc1cccc(NC(=O)NCc2cccc(CNC(=O)Nc3cccc(C#N)c3)c2)c1 [Compound 32] |  |  |  | % Inhibition at 10 μM [3]: None detected |
| cyclosporin A [reference compound] | maintains neuronal viability |  |  |  |
